Measurements: patent US11213593B2, “Sequence-specific cellular uptake of spherical nucleic acid nanoparticle conjugates” (priority 2014, dated 2022)

Legend:
C166 cells [1] = test: Confocal microscopy of QD-SNAs in C166 cells; assay type: cell-based, mouse; conditions: C166 cells co-treated with equal concentrations of a QD-SNA and an AuNP-SNA of the other shell
Description: Five nanometer AuNP-SNAs and QD-SNAs comprised of oligonucleotides listed in Table 2 were prepared to study the effect of the poly G shell on the cellular uptake of SNAs of different core compositions (FIG. 6). All sequences are 28 bases long and terminated with a dibenzocyclooctyl (DBCO) group. The AuNP-SNAs and QD-SNAs were synthesized using a previously described strategy [Zhang et al., Nat Mater 12: 741-746 (2013), incorporated herein by reference in its entirety]. In one set of experiments, C166 cells were treated with equal concentrations of T-rich QD-SNAs and poly G AuNP-SNAs. In another set of experiments, cells were treated with equal concentrations of T-rich AuNP-SNAs and poly G QD-SNAs. Confocal microscopy was then used to track the fluorescent signal of the QDs that entered cells. […] To further confirm, ICP-MS was used to analyze the Au content and Cd content in C166 cells treated with T-rich AuNP-SNAs or QD-SNAs alone, poly G AuNP-SNAs or QD-SNAs alone, a combination of T-rich AuNP-SNAs and poly G QD-SNAs, and a combination of T-rich QD-SNAs and poly G AuNP-SNAs. C166 cells treated with poly G AuNP-SNAs have 3 times higher Au content than cells treated with T-rich AuNP-SNAs. […] Cells treated with poly G AuNP-SNAs and T-rich QD-SNAs have higher Au content compared to Cd content, and this trend is reversed for cells treated with T-rich AuNP-SNAs and poly G QD-SNAs (FIG. 6b).

C166 cells [2] = test: ICP-MS of Au and Cd content in C166 cells (competitive cellular uptake assay); assay type: cell-based, mouse
Description: Five nanometer AuNP-SNAs and QD-SNAs comprised of oligonucleotides listed in Table 2 were prepared to study the effect of the poly G shell on the cellular uptake of SNAs of different core compositions (FIG. 6). All sequences are 28 bases long and terminated with a dibenzocyclooctyl (DBCO) group. The AuNP-SNAs and QD-SNAs were synthesized using a previously described strategy [Zhang et al., Nat Mater 12: 741-746 (2013), incorporated herein by reference in its entirety]. In one set of experiments, C166 cells were treated with equal concentrations of T-rich QD-SNAs and poly G AuNP-SNAs. In another set of experiments, cells were treated with equal concentrations of T-rich AuNP-SNAs and poly G QD-SNAs. Confocal microscopy was then used to track the fluorescent signal of the QDs that entered cells. […] To further confirm, ICP-MS was used to analyze the Au content and Cd content in C166 cells treated with T-rich AuNP-SNAs or QD-SNAs alone, poly G AuNP-SNAs or QD-SNAs alone, a combination of T-rich AuNP-SNAs and poly G QD-SNAs, and a combination of T-rich QD-SNAs and poly G AuNP-SNAs. […]
ICP-MS. After adding 5 μL of 5 ppm indium (internal standard) and 5 mL of matrix solution (2% HCl and 2% HNO3), the Au-197 content of the resultant solution was measured by an X Series II ICP-MS (ThermoFisher) after subtracting the background gold content of untreated cells. […]

| Substance | intracellular fluorescence of QDs (C166 cells [1]) | Cd content of cells versus cells treated with T-rich QD-SNAs (C166 cells [2]; C166 cells) | competitive cellular uptake (Au versus Cd content) (C166 cells [2]; C166 cells treated with a combination of AuNP-SNAs and QD-SNAs) |
| --- | --- | --- | --- |
| T-rich QD-SNAs: CdSe quantum dot, polymer-coated, with DBCO-terminated 28-base T-rich DNA, SEQ ID NO: 8 (DNA TATCGTATTTACTCTGATTTTTTTTTTT; DBCO-terminated DNA clicked to polymer-coated CdSe quantum dot, further chemistry not given here) | very little intracellular fluorescence |  |  |
| poly G QD-SNAs: CdSe quantum dot, polymer-coated, with DBCO-terminated 28-base DNA (GGT)5T13, SEQ ID NO: 7 (DNA GGTGGTGGTGGTGGTTTTTTTTTTTTTT; DBCO-terminated DNA clicked to polymer-coated CdSe quantum dot, further chemistry not given here) | significantly higher intracellular fluorescence | three-fold higher Cd content | preferentially enter cells |
